Entries after “also recorded” stand apart in the source; their conditions may differ.
How the values were obtained:
GMP-140 = GMP-140 expression in platelets (flow cytometry with mAb AC1.2); type: cell-based; details: platelets preincubated with compound; thrombin or PMA activation
Experimental: GMP-140 expression was determined by (i) flow cytometry with mAb AC1.2, which is directed to GMP-140 and obtained from Dr. Furie (Tufts Univ. Sch. Med., Boston, Mass.) and (ii) adhesion of HL60 cells on platelet-coated solid phase.
A suspension of platelets (1×10^8 /ml) in Tyrode buffer was preincubated with inhibitor at pH 7.2, 37° C., for 5 minutes, then supplemented with activator, either thrombin (final concentration 1 U/ml) or phorbol 12-myristate 13-acetate (PMA) (final concentration 10^-7 M), and then the mixture was incubated at 37° C. for 10 minutes. Platelets were fixed with an equal volume of 2% (w/v) paraformaldehyde in PBS and washed 2 times with PBS containing 1% (w/v) BSA.
The paraformaldehyde-fixed platelets were incubated with 50 μl of mAb AC1.2 (2.5 μg/ml) at room temperature for 30 minutes. […]
The platelets were analyzed in an Epics flow cytometer (Coulter Corp.) with suitable gating. To calculate the inhibitory effect of various reagents, the mean fluorescence intensity of resting platelets (obtained on incubation of platelets without activator) was subtracted from the value for the activated platelet sample.

neutrophils [1] = assay: PMA-dependent O2 consumption of neutrophils; type: cell-based, human
water solubility = type: physicochemical; details: particularly at physiologic pH
erythrocyte = erythrocyte metabolic activity under blood storage conditions; type: cell-based; details: in vitro, normal blood storage conditions; reduction of erythrocyte enzyme activity
Excerpt: Similar results can be expected for leukocytes and platelets.

[2] = test system: 47 kDa and 65 kDa proteins; assay: PMA-stimulated protein phosphorylation in 32P-labeled neutrophils; type: cell-based, human; details: neutrophils pre-incubated with 15-45 μM, then 1.5 μM PMA
Experimental: Excess unbound components were removed by centrifugation and the pellets were resuspended in the same buffer, repeating twice. The cells then were divided into 7 treatment groups, each containing ≈1×10^7 cells in a total volume of 0.4 ml. TMS, SPN or DMS was added to a suspension and incubated at 37° C. for 10 min, followed by addition of PMA to a final concentration of 1.5 μM. Two minutes later, the reaction was terminated by adding 0.1 ml of Laemmli sample buffer and 20 mM EDTA, followed by heating at 100° C. for 5 min. Aliquots were separated through 10% sodium dodecyl sulfate gels using known procedures. ^32 P incorporation was visualized by autoradiography.

platelets = assay: platelet aggregation (aggregometer, thrombin or ADP); type: cell-based; details: background statement
Experimental: Platelets were isolated from platelet-rich plasma (purchased from the Oregon Red Cross, Portland, Oreg.). Contaminating erythrocytes were removed by centrifugation (80×g for 10 minutes). Platelets were obtained by centrifugation (300×g for 10 minutes), washed once in Tyrode buffer (pH 6.5) containing 22 mM trisodium citrate and 0.35% (w/v) BSA and resuspended in the same buffer to obtain a concentration of 1-2×10^9 platelets/ml. All procedures were performed at room temperature.
A suspension of platelets (about 3.5×10^8 /ml) in Tyrode buffer was preincubated with inhibitor compounds (H-7 [1-(5-isoquinolinylsulfonyl)-2-methylpiperazine, a synthetic protein kinase-C inhibitor purchased from Seikagaku America Inc., St. Petersburg, Fla.], Calphostin-C [a synthetic protein kinase-C inhibitor obtained from Dr. Saitoh, Kyowa Hakko Co., Ltd., Machida, Tokyo, Japan], sphingosine [purchased from Sigma, St. Louis, Mo.] and dimethylsphingosine and trimethylsphingosine [synthesized according to Igarashi et al., Biochem., 28, 6796, 1989]) followed by addition of thrombin or ADP (both purchased from Sigma). Platelet aggregation was evaluated by transmittance change using an aggregometer (Chrono-log Corp., Havertown, Pa.) equipped with a computer analyzer.

HL60 cells = assay: HL60 adhesion on activated platelet-coated solid phase; type: cell-based, human; details: thrombin-stimulated and PMA-stimulated platelets
Experimental: HL60 (a human promylelocytic cell line available from the ATCC under accession number CCL 240) adhesion on resting or activated platelet-coatedsolid phase was evaluated as follows. Each well of a 48-well plate (Costar Scientific, Cambridge, Mass.) was filled with a poly-L-lysine solution (100 μg/ml in PBS) and incubated for 1 hour. Each well then was washed with PBS and then 150 μl of PBS containing 6×10^7 resting or activated platelets were added to each well and the plate was incubated for 1 hour. Plates were centrifuged (300×g for 7 minutes) and incubated a further 30 minutes at room temperature. Bound platelets were fixed by addition of 0.1% (w/v) glutaraldehyde in PBS for 2 minutes at 4° C. Each well was washed with 10 mM glycine in PBS and plates were incubated with 5% (w/v) BSA containing 0.1% (w/v) sodium azide, 10 mM glycine in PBS for 1 hour at room temperature.

neutrophils [3] = assay: phagokinetic activity of neutrophils on gold sol-coated plates; type: cell-based, human
Excerpt: The phagokinetic activity of neutrophils on gold sol-coated plates can be determined by a technique essentially as taught in Albrecht-Buehler (Cell, 11, 395, 1977). […] The TMS-dependent inhibitory effect is reversed completely when the culture medium is replaced with TMS-free medium. Thus, the inhibitory effect of TMS on phagokinetic activity is not dependent on cytotoxicity.

F1 cells = assay: tritiated thymidine incorporation, cell growth; type: cell-based, mouse; details: F1 cells in vitro
Experimental: An in vitro assay relying on tritiated thymidine incorporation can be used to ascertain the effect of various compounds on cell proliferation. Briefly, tumor cells are seeded in flat bottom 96 well plates (Corning, N.Y.) at a concentration of 2×10^4 cells per well. The cells were cultured for 2 days in DMEM containing various concentrations of sphingoid which was added as a PBS solution. The medium then was supplemented with tritiated thymidine at a concentration of 0.5 μCi per well. Following a six hour incubation the cells were collected using the PHD Cell Harvester (Cambridge Technology, Cambridge, Mass.) and amounts of incorporated radioactivity were determined after adding a suitable cell lysing agent and scintillation cocktail, such as ScintiVerse BD (Fisher Scientific, Fairlawn, Calif.) which performs both functions.
Certain cancer cells show a higher metastatic potential and invasive capability than others. For example, in the mouse, the BL6 and F10 melanoma cell lines are highly metastatic and invasive. On the other hand, the F1 variant is much less metastatic and invasive (I. R. Hart et al., Amer. J. Pathol., 97, 587-592 (1979); G. Poote et al., Cancer Res. 42, 2770-2778 (1982); F1 and F10 clones from ATCC CRL 6323, and CRL 6475, respectively). BL6 and F1 cells were tested in vitro as described above. […]

Q: For CCCCCCCCCCCCC/C=C/C(O)C(CO)[N+](C)(C)C (stereo not drawn) [TMS, N,N,N-trimethylsphingosine], which GMP-140 expression (GMP-140) is on record?
A: The GMP-140 expression was “down-regulated or blocked; also recorded: inhibits GMP-140 expression”.

Q: And the “PMA-dependent enhancement of O2 consumption” value (neutrophils [1])?
A: Its value is “inhibited strongly”.

Q: And the water solubility (water solubility)?
A: The water solubility was “highly water soluble”.

Q: What about the erythrocyte metabolic activity (erythrocyte) of the same molecule?
A: The erythrocyte metabolic activity was “retards erythrocyte metabolic activity”.

Q: And the “phosphorylation of 47 kDa and 65 kDa proteins” value [2]?
A: Its value is “diminished significantly; also recorded: had an affect on phosphorylation”.

Q: And the “Platelet aggregation and associated ATP secretion” value (platelets)?
A: Its value is “inhibited strongly”.

Q: And the HL60 cell binding (HL60 cells)?
A: Its HL60 cell binding is “inhibited strongly”.

Q: And the Phagokinetic activity (neutrophils [3])?
A: The Phagokinetic activity was “suppressed significantly”.

Q: What about the inhibiting cell growth (F1 cells) of the same molecule?
A: Its inhibiting cell growth is “more effective than DMS and sphingosine”.

Reference: US6031135A, “Trimethylsphingosine derivatives” (Oncomembrane, Inc., priority 1996, dated 2000)
